The nature of experiment [1]: Ratio of orexin-1 receptor to orexin-2 receptor in human.
Experiment [2] addresses T1, Orexin receptor type 2 (Homo sapiens, UniProt O43614).
T1 sequence (O43614 whole entry): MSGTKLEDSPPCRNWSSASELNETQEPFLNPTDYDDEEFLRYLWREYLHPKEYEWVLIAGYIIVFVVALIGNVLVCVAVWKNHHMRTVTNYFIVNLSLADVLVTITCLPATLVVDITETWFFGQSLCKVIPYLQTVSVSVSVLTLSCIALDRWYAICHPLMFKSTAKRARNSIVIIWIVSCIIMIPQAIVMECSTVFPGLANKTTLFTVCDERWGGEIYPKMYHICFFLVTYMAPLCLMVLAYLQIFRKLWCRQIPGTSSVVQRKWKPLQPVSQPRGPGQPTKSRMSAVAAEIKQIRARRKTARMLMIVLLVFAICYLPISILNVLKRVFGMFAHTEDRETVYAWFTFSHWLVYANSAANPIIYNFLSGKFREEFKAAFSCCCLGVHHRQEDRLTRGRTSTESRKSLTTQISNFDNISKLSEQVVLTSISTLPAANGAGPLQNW
Put plainly: Effective agonist concentration to the human Orexin receptor type 2 was determined using the Xlfit program. Format: functional.

Experiment [3] has as its target T2, Orexin/Hypocretin receptor type 1 (Homo sapiens, UniProt O43613).
T2 sequence (O43613 whole entry): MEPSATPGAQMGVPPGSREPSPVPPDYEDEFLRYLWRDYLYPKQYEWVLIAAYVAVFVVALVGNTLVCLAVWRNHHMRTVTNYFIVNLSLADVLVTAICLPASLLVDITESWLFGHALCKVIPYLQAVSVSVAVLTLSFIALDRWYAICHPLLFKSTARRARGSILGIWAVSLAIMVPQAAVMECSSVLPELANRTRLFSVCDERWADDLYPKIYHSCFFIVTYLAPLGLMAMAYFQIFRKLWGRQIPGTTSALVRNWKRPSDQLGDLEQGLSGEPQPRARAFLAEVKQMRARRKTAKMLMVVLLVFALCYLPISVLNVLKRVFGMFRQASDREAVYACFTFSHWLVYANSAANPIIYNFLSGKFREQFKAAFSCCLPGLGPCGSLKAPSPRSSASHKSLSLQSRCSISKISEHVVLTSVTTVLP
Nature of the experiment: Effective agonist concentration to human orexin receptor type 1 determined using the Xlfit program. Format: functional.

Residues, ends and D or L forms follow the SMILES beside them.

On to `CC[C@H](C)[C@H](NC(=O)CNC(=O)[C@H](C)NC(=O)[C@H](C)NC(=O)[C@H](Cc1c[nH]cn1)NC(=O)[C@H](CC(N)=O)NC(=O)CNC(=O)[C@H](CO)NC(=O)[C@H](C)NC(=O)[C@H](CCC(N)=O)NC(=O)[C@H](CC(C)C)NC(=O)[C@H](CC(C)C)NC(=O)[C@H](CCCN=C(N)N)NC(=O)[C@H](CCC(N)=O)NC(=O)[C@H](CC(C)C)NC(=O)[C@@H](N)CCCN=C(N)N)C(=O)N[C@@H](CC(C)C)C(=O)N[C@H](C(=O)N[C@@H](CCSC)C(=O)O)[C@@H](C)O` (H-RLQRLLQASGNHAAGILTM-OH), for which the Ratio in experiment [1] was above 1750. Still for that read-out and setting: to `CC[C@H](C)[C@H](NC(=O)CNC(=O)[C@H](C)NC(=O)[C@H](C)NC(=O)[C@H](Cc1c[nH]cn1)NC(=O)[C@H](CC(N)=O)NC(=O)CNC(=O)[C@H](CO)NC(=O)[C@H](C)NC(=O)[C@H](CCC(N)=O)NC(=O)[C@H](CC(C)C)NC(=O)[C@H](CC(C)C)NC(=O)[C@H](CCCN=C(N)N)NC(=O)[C@H](CCC(N)=O)NC(=O)[C@H](CC(C)C)NC(=O)[C@H](CCCN=C(N)N)NC(=O)CNC(=O)[C@@H](N)CCC(N)=O)C(=O)N[C@@H](CC(C)C)C(=O)N[C@H](C(=O)N[C@@H](CCSC)C(=O)O)[C@@H](C)O` (H-QGRLQRLLQASGNHAAGILTM-OH) belongs 18.2; to `CC[C@H](C)[C@H](NC(=O)CNC(=O)[C@H](C)NC(=O)[C@H](C)NC(=O)[C@H](Cc1c[nH]cn1)NC(=O)[C@H](CC(N)=O)NC(=O)CNC(=O)[C@H](C)NC(=O)CNC(=O)[C@H](Cc1c[nH]cn1)NC(=O)[C@H](CC(C)C)NC(=O)[C@H](CC(C)C)NC(=O)[C@H](CCC(=O)O)NC(=O)[C@H](Cc1ccc(O)cc1)NC(=O)[C@H](CC(C)C)NC(=O)[C@H](CCCN=C(N)N)NC(=O)[C@H](CS)NC(=O)[C@H](CO)NC(=O)[C@H](CS)NC(=O)[C@@H](NC(=O)[C@H](CCCCN)NC(=O)[C@H](CCC(N)=O)NC(=O)[C@@H](N)CCCN=C(N)N)[C@@H](C)O)C(=O)N[C@@H](CC(C)C)C(=O)N[C@H](C(=O)N[C@@H](CC(C)C)C(=O)O)[C@@H](C)O` (H-RQKTCSCRLYELLHGAGNHAAGILTL-OH), 2.3; to `CC[C@H](C)[C@H](NC(=O)CNC(=O)[C@H](C)NC(=O)[C@H](C)NC(=O)[C@H](Cc1c[nH]cn1)NC(=O)[C@H](C)NC(=O)CNC(=O)[C@H](CO)NC(=O)[C@H](C)NC(=O)[C@H](CCC(N)=O)NC(=O)[C@H](CC(C)C)NC(=O)[C@H](CC(C)C)NC(=O)[C@H](CCCN=C(N)N)NC(=O)[C@H](CCC(N)=O)NC(=O)[C@H](CC(C)C)NC(=O)[C@H](CCCN=C(N)N)NC(=O)CNC(=O)[C@H](CCC(N)=O)NC(=O)[C@H](CC(C)C)NC(=O)CN)C(=O)N[C@@H](CC(C)C)C(=O)N[C@H](C(=O)N[C@@H](CCSC)C(=O)O)[C@@H](C)O` (stereo in doubt; form 2), 6.8. Still for that read-out and setting: to `CC[C@H](C)[C@H](NC(=O)CNC(=O)[C@H](C)NC(=O)[C@H](C)NC(=O)[C@H](Cc1c[nH]cn1)NC(=O)[C@H](CC(N)=O)NC(=O)CNC(=O)[C@H](CO)NC(=O)[C@H](C)NC(=O)[C@H](CCC(N)=O)NC(=O)[C@H](CC(C)C)NC(=O)[C@H](CC(C)C)NC(=O)[C@H](CCCN=C(N)N)NC(=O)[C@@H]1CCCN1C(=O)[C@H](CC(C)C)NC(=O)[C@H](CCCN=C(N)N)NC(=O)CNC(=O)[C@H](CCC(N)=O)NC(=O)[C@H](CC(C)C)NC(=O)CN)C(=O)N[C@@H](CC(C)C)C(=O)N[C@H](C(=O)N[C@@H](CCSC)C(=O)O)[C@@H](C)O` (stereo in doubt; form 1) belongs 18.8; to `CC[C@H](C)[C@H](NC(=O)CNC(=O)[C@H](C)NC(=O)[C@H](C)NC(=O)[C@H](Cc1c[nH]cn1)NC(=O)[C@H](CC(N)=O)NC(=O)CNC(=O)[C@H](CO)NC(=O)[C@H](C)NC(=O)[C@H](CCC(N)=O)NC(=O)[C@H](C)NC(=O)[C@H](CC(C)C)NC(=O)[C@H](CCCN=C(N)N)NC(=O)[C@H](CCC(N)=O)NC(=O)[C@H](CC(C)C)NC(=O)[C@H](CCCN=C(N)N)NC(=O)CNC(=O)[C@H](CCC(N)=O)NC(=O)[C@H](CC(C)C)NC(=O)CN)C(=O)N[C@@H](CC(C)C)C(=O)N[C@H](C(=O)N[C@@H](CCSC)C(=O)O)[C@@H](C)O` (H-GLQGRLQRLAQASGNHAAGILTM-OH), above 430; to `CC[C@H](C)[C@H](NC(=O)CNC(=O)[C@H](C)NC(=O)[C@H](C)NC(=O)[C@H](Cc1c[nH]cn1)NC(=O)[C@H](CC(N)=O)NC(=O)CNC(=O)[C@H](CO)NC(=O)[C@H](C)NC(=O)[C@H](CCC(N)=O)NC(=O)[C@H](CC(C)C)NC(=O)[C@H](CC(C)C)NC(=O)[C@H](CCCN=C(N)N)NC(=O)[C@H](CCC(N)=O)NC(=O)[C@H](CC(C)C)NC(=O)[C@H](CCCN=C(N)N)NC(=O)CNC(=O)[C@H](CCC(N)=O)NC(=O)[C@@H]1CCCN1C(=O)CN)C(=O)N[C@@H](CC(C)C)C(=O)N[C@H](C(=O)N[C@@H](CCSC)C(=O)O)[C@@H](C)O` (H-GPQGRLQRLLQASGNHAAGILTM-OH), 28.3. Same read-out and setting: to `CC[C@H](C)[C@H](NC(=O)CNC(=O)[C@H](C)NC(=O)[C@H](C)NC(=O)[C@H](Cc1c[nH]cn1)NC(=O)[C@H](CC(N)=O)NC(=O)CNC(=O)[C@H](CO)NC(=O)[C@H](C)NC(=O)[C@H](CCC(N)=O)NC(=O)[C@H](CC(C)C)NC(=O)[C@H](CC(C)C)NC(=O)[C@H](CCCN=C(N)N)NC(=O)[C@@H]1CCCN1C(=O)[C@H](CC(C)C)NC(=O)[C@H](CCCN=C(N)N)NC(=O)CNC(=O)[C@H](CCC(N)=O)NC(=O)[C@H](CC(C)C)NC(=O)CN)C(=O)N[C@@H](CC(C)C)C(=O)N[C@H](C(=O)N[C@@H](CCSC)C(=O)O)[C@@H](C)O` (stereo in doubt; form 2) belongs 15; to `CC[C@H](C)[C@H](NC(=O)CNC(=O)[C@H](C)NC(=O)[C@H](C)NC(=O)[C@H](Cc1c[nH]cn1)NC(=O)[C@H](CC(N)=O)NC(=O)CNC(=O)[C@H](CO)NC(=O)[C@H](C)NC(=O)[C@H](CCC(N)=O)NC(=O)[C@H](CC(C)C)NC(=O)[C@H](CC(C)C)NC(=O)[C@H](CCCN=C(N)N)NC(=O)[C@H](CCC(N)=O)NC(=O)[C@H](CC(C)C)NC(=O)[C@H](CCCN=C(N)N)NC(=O)CNC(=O)[C@H](C)NC(=O)[C@H](CC(C)C)NC(=O)CN)C(=O)N[C@@H](CC(C)C)C(=O)N[C@H](C(=O)N[C@@H](CCSC)C(=O)O)[C@@H](C)O` (H-GLAGRLQRLLQASGNHAAGILTM-OH), 6.8. With `CC[C@H](C)[C@H](NC(=O)CNC(=O)[C@H](C)NC(=O)[C@H](C)NC(=O)[C@H](Cc1c[nH]cn1)NC(=O)[C@H](CC(N)=O)NC(=O)CNC(=O)[C@H](C)NC(=O)CNC(=O)[C@H](Cc1c[nH]cn1)NC(=O)[C@H](CC(C)C)NC(=O)[C@H](CC(C)C)NC(=O)[C@H](CCC(=O)O)NC(=O)[C@H](Cc1ccc(O)cc1)NC(=O)[C@H](CC(C)C)NC(=O)[C@@H](N)CCCN=C(N)N)C(=O)N[C@@H](CC(C)C)C(=O)N[C@H](C(=O)N[C@@H](CC(C)C)C(=O)O)[C@@H](C)O` (H-RLYELLHGAGNHAAGILTL-OH), in experiment [1], the Ratio came to 4.3. What is called EC50 is the midpoint of the concentration-response curve. For the compound `CSCC[C@H](NC(=O)[C@@H](NC(=O)[C@H](CC(C)C)NC(=O)[C@H](C)NC(=O)CNC(=O)[C@H](C)NC(=O)[C@H](C)NC(=O)[C@H](Cc1c[nH]cn1)NC(=O)[C@H](CC(N)=O)NC(=O)CNC(=O)[C@H](CO)NC(=O)[C@H](C)NC(=O)[C@H](CCC(N)=O)NC(=O)[C@H](CC(C)C)NC(=O)[C@H](CC(C)C)NC(=O)[C@H](CCCN=C(N)N)NC(=O)[C@H](CCC(N)=O)NC(=O)[C@H](CC(C)C)NC(=O)[C@H](CCCN=C(N)N)NC(=O)CNC(=O)[C@H](CCC(N)=O)NC(=O)[C@H](CC(C)C)NC(=O)CN)[C@@H](C)O)C(=O)O` (H-GLQGRLQRLLQASGNHAAGALTM-OH), the concentration giving a half-maximal response (EC50) in experiment [2] and in experiment [3] was above 1000 µM in each case. Regarding `CC(C)C[C@H](NC(=O)CNC(=O)[C@@H]1CCCN1C(=O)[C@@H]1CCCN1C(=O)CNC(=O)[C@H](CO)NC(=O)[C@@H](N)CCCNC(=N)N)C(=O)N[C@@H](CCC(N)=O)C(=O)NCC(=O)N[C@@H](CCCNC(=N)N)C(=O)N[C@@H](CC(C)C)C(=O)N[C@@H](CCC(N)=O)C(=O)N[C@@H](CCCNC(=N)N)C(=O)N[C@@H](CC(C)C)C(=O)N[C@@H](CC(C)C)C(=O)N[C@@H](CCC(N)=O)C(=O)N[C@@H](C)C(=O)N[C@@H](CO)C(=O)NCC(=O)N[C@@H](CC(N)=O)C(=O)N[C@@H](Cc1cnc[nH]1)C(=O)O` (H-RSGPPGLQGRLQRLLQASGNH-OH), the 50% effective concentration (EC50) in experiment [2] and in experiment [3] was above 1000 µM each time. `CC[C@H](C)[C@H](NC(=O)CNC(=O)[C@H](C)NC(=O)[C@H](C)NC(=O)[C@H](Cc1cnc[nH]1)NC(=O)[C@H](CC(N)=O)NC(=O)CNC(=O)[C@H](C)NC(=O)CNC(=O)[C@H](Cc1cnc[nH]1)NC(=O)[C@H](CC(C)C)NC(=O)[C@H](CC(C)C)NC(=O)[C@H](CCC(=O)O)NC(=O)[C@H](Cc1ccc(O)cc1)NC(=O)[C@H](CC(C)C)NC(=O)[C@@H](N)CCCNC(=N)N)C(=O)N[C@@H](CC(C)C)C(=O)N[C@H](C(=O)N[C@@H](CC(C)C)C(=O)O)[C@@H](C)O` (H-RLYELLHGAGNHAAGILTL-OH): the EC50 came to 0.42 µM in experiment [2] and 1.79 µM in experiment [3].

The values above are taken from ChEMBL document CHEMBL1148480, “Structure-activity studies of orexin a and orexin B at the human orexin 1 and orexin 2 receptors led to orexin 2 receptor selective and orexin 1 receptor preferring ligands” (J Med Chem, 2004).
